Source: patent publication US20080095822A1, “Active Substance Delivery System Comprising A Hydrogel Atrix And Microcarriers” (UNIVERSITE DE LIEGE, priority 2004, published 2008)

Experiment: release of LNG from PHEMA hydrogel matrix into purified water (HPLC-UV)
Assay type: physicochemical
Settings: LNG directly in matrix, after 10 days, purified water 37° C.

release rate after stabilisation: around 10 μg/day
SMILES: C#C[C@]1(O)CC[C@H]2[C@@H]3CCC4=CC(=O)CC[C@@H]4[C@H]3CC[C@@]21CC [LNG, levonorgestrel]
